In brackets after ≈: the same amount, converted by molar mass.

What all share (experiment): Antifungal activity test (in vitro), MIC
Holding throughout (assay type): cell-based

Test [1] has as its system Aspergillus fumigatus ATCC 1028. The settings on record: ATCC1028. The method, then: Minimum inhibitory concentration (MIC) of each of the compounds obtained in Examples 1 to 12 was measured for respective fungi at MOS Pharm Service, by the methods described in Antimicrobial Agents and Chemotherapy, vol. 3, pp. 40-48 (1973), Antimicrobial Agents and Chemotherapy, vol. 33, pp. 215-222 (1989) and Antimicrobial Agents and Chemotherapy, vol. 38, pp. 2362-2368 (1994). The measuring conditions are shown in the following. In this case, Voriconazol was used as a comparative compound.
Aspergillus fumigatus ATCC 1028; Cultured at 28° C. for 2 days using potato dextrose broth, and this was used as a cell suspension.
Each of the compounds of the invention was adjusted to a concentration of 1% by weight using dimethyl sulfoxide (DMSO) and a medium similar to the respective medium used in the above-mentioned fungal culture, having a final concentration of from 0.001 to 100 μg/ml, was prepared. Each of the inoculation cell suspensions prepared by the above-mentioned methods was inoculated onto this agar plate. […] In this connection, Voriconazol was used as the comparative compound C-1.

Test [2] has as its system Cryptococcus neoformans ATCC 24067. The conditions noted are these: ATCC24067. Here is the method:
(§1) Minimum inhibitory concentration (MIC) of each of the compounds obtained in Examples 1 to 12 was measured for respective fungi at MOS Pharm Service, by the methods described in Antimicrobial Agents and Chemotherapy, vol. 3, pp. 40-48 (1973), Antimicrobial Agents and Chemotherapy, vol. 33, pp. 215-222 (1989) and Antimicrobial Agents and Chemotherapy, vol. 38, pp. 2362-2368 (1994). The measuring conditions are shown in the following. In this case, Voriconazol was used as a comparative compound. Cryptococcus neoformans ATCC 24067, Pityrosporum ovale ATCC 38593; Cultured at 37° C. for 2 day using fluid Sabouraud medium, and this was used as a cell suspension. Each of the compounds of the invention was adjusted to a concentration of 1% by weight using dimethyl sulfoxide (DMSO) and a medium similar to the respective medium used in the above-mentioned fungal culture, having a final concentration of from 0.001 to 100 μg/ml, was prepared. Each of the inoculation cell suspensions prepared by the above-mentioned methods was inoculated onto this agar plate. […] In this connection, Voriconazol was used as the comparative compound C-1.

The test system of test [3] is Pityrosporum ovale ATCC 38593. The settings on record: Malassezia furfur, ATCC38593. Here is the method:
as §1

In test [4] the test system is Microsporum canis ATCC 36299. The settings on record: ATCC36299. The method, then: as §1, with “Microsporum canis” for “Cryptococcus neoformans”, “36299;” for “24067, Pityrosporum ovale ATCC 38593;”, “30°” for “37°”, “days” for “day”
The subject of test [5] is Trichophyton mentagrophytes ATCC 9533. The settings on record: ATCC9533. The method, then: as §1, with “Trichophyton mentagrophytes” for “Cryptococcus neoformans”, “9533;” for “24067, Pityrosporum ovale ATCC 38593;”, “28°” for “37°”, “3 days” for “2 day”
Test [6] deals with Candida albicans ATCC 10231. The settings on record: ATCC10231. The method, then:
as §1, with “Candida albicans” for “Cryptococcus neoformans”, “10231 and” for “24067, Pityrosporum ovale”, “44858;” for “38593;”, “20 hours” for “2 day”

Test [7] has as its system Candida albicans ATCC 44858. The settings on record: ATCC44858. The method, then: as §1, with “Candida albicans” for “Cryptococcus neoformans”, “10231 and” for “24067, Pityrosporum ovale”, “44858;” for “38593;”, “20 hours” for “2 day”
Test [8] has as its system Trichophyton rubrum ATCC 10218. The conditions noted are these: ATCC10218. The method, then:
as §1, with “Trichophyton rubrum” for “Cryptococcus neoformans”, “10218;” for “24067, Pityrosporum ovale ATCC 38593;”, “28°” for “37°”, “3 days” for “2 day”

Test [9] concerns Aspergillus niger ATCC 8740. The conditions noted are these: ATCC8740. Here is the method:
as §1, with “Aspergillus niger” for “Cryptococcus neoformans”, “8740;” for “24067, Pityrosporum ovale ATCC 38593;”, “28°” for “37°”, “days” for “day”, “potato dextrose broth,” for “fluid Sabouraud medium,”

For orientation: MIC means the smallest concentration in the dilution series that meets the test's criterion for growth inhibition. Lower therefore signals inhibition by little substance. `C[C@@H](c1ncncc1F)[C@](O)(Cn1cncn1)c1ccc(F)cc1F` [C-1, Voriconazol, reference compound]: the MIC in [1] amounted to 0.3 µg/mL (≈ 0.859 µM); in [2], 0.1 µg/mL (≈ 0.286 µM); in test [3] it was 0.3 µg/mL (≈ 0.859 µM); in [4], 3 µg/mL (≈ 8.59 µM); in test [5], 0.1 µg/mL (≈ 0.286 µM); in test [6], 0.3 µg/mL (≈ 0.859 µM). In addition, the figures for the MIC in [7], in [8] and in test [9] were 0.3 µg/mL (≈ 0.859 µM), 0.3 µg/mL (≈ 0.859 µM) and 0.1 µg/mL (≈ 0.286 µM), respectively.

The record behind these values is US7973056B2, “Triazole derivative or salt thereof” (Fujifilm Finechemicals Co., Ltd, priority 2008, dated 2011).
